Results: US10544090B2, “Anthraquinone analogs and methods of making and using thereof” (Georgia State University Research Foundation, Inc., priority 2012, dated 2020)
Like-named read-outs stand apart in the source and are kept apart here.

How the values were obtained:
HeLa [1] = test: MTT cytotoxicity assay, HeLa (Table 2); details: for IC50 / IC50 (μM) against HeLa: Table 2; for cytotoxicity against HeLa cells compared to rhein: in words
Procedure: (§1) The in vitro cytotoxicity studies of the synthesized compounds were performed in three different cell lines (HeLa, Hek, and KB). The activities of the herein described analogues were compared to that of rhein itself and doxorubicin. Due to the poor solubility of the compounds, all of the solutions used for biological testing were prepared using DMSO as solvent.

Hek = test: MTT cytotoxicity assay, Hek (Table 2); format: cell-based; details: for IC50: read-out: IC50 (μM) against Hek
Procedure: as §1

KB = test: MTT cytotoxicity assay, KB (Table 2); format: cell-based; details: 48 h incubation; for IC50: read-out: IC50 (μM) against KB
Procedure: as §1

HeLa [2] = test: MTT cytotoxicity evaluation of series 1 and 2 rhein analogues, HeLa (Tables 3, 4); format: cell-based; details: for potency in HeLa cells compared with rhein: in words
human NBMM cells = test: WST cytotoxic assay on normal bone marrow mononuclear cells; format: cell-based; details: concentration of 1-2 μM
Procedure: FIGS. 2a-2i are graphs showing the cytotoxicity of various Rhein analogues. Acute lymphoblastic leukemia (ALL) cell lines EU-1 (p53 normal) and EU-8 (p53 null) as well as normal human BM stroma cells were incubated with different concentrations of Rhein analogues as indicated for 24 h. Viability of cells was detected by Water soluble Tetrazolium (WST) dye assay. Data represent the mean percentage ±SD of the surviving cells (as compared to untreated controls) from three independent experiments.
The cytotoxic and inhibitory effects of the compounds described herein on normal human BM cells in vitro, as compared with doxorubicin was evaluated.

mice = test: Toxicity in mice; format: in vivo; details: single injection at a dose of 15/kg
Procedure: FIG. 6 is a table showing the estimated treatment doses and maximum tolerated dose (MTD) of MG1 in mice as compared with doxorubicin.
Toxicity was also evaluated in mice. […] Subsequently, a single injection of MG1 at a dose of 400 mg/kg was administered via injection.
[…]. Toxicity was also evaluated in mice. […] Subsequently, a single injection of MG1 at a dose of 400 mg/kg was administered via injection.

DNA damage = test: Comet images, mechanism of cancer cell death; format: cell-based
MOLT4 = test: MTT cytotoxicity evaluation of series 1 and 2 rhein analogues, MOLT4 (Tables 3, 4); details: for cytotoxicity against MOLT4 compared with rhein: in words
[3] = Homo sapiens, HeLa, 48 h, read-out: IC50 (μM) against HeLa, MTT, 48 h incubation
[4] = read-out: IC50 (μM) against HeLa, MTT, 48 h incubation
[5] = Homo sapiens, HEK293, 48 h incubation
[6] = Homo sapiens, HeLa, MTT, Tables 3 and 4, read-out: IC50 (μM) against HeLa
[7] = Homo sapiens, MOLT-4, read-out: IC50 (μM) against MOLT4
[8] = MTT, Tables 3 and 4, read-out: IC50 (μM) against HeLa
[9] = read-out: IC50 (μM) against MOLT4, MTT, Tables 3 and 4

COc1cccc2c1C(=O)c1c(O)c3c(c(O)c1C2=O)C[C@@](O)(C(=O)CO)C[C@@H]3O[C@H]1C[C@H](N)[C@H](O)[C@H](C)O1 [Doxorubicin, reference compound]
IC50 (HeLa [1]; [3]): 1.4 µM
IC50 (HeLa [1]; [4]): 1.5 µM
IC50 (Hek; [5]): 0.15 µM
IC50 (KB; Homo sapiens, KB): 0.4 µM
IC50 (HeLa [2]; [6]): 0.98 µM
human NBMM cells survived after treatment (human NBMM cells): 40-50%
death of mice (mice): death of all mice at day 7 due to cardiac toxicity
mechanism of cancer cell death (DNA damage) (DNA damage): induces cancer cell death through DNA damage
IC50 (MOLT4; [7]): 0.04 µM

O=C(CBr)NCCCCNC(=O)c1cc(O)c2c(c1)C(=O)c1cccc(O)c1C2=O [Compound 18, 1,8-Dihydroxy-3-(9′-bromo-aceta-2′,7′diamido)-anthraquinone]
IC50 (μM) against HeLa (HeLa [1]; MTT, 48 h incubation): low micro molar
cytotoxicity against HeLa cells compared to rhein (HeLa [1]): significant improvement
IC50 (HeLa [1]; [4]): 3 µM
IC50 (μM) against Hek (Hek; 48 h incubation): low micro molar
IC50 (Hek; 48 h incubation): 1.4 µM
IC50 (μM) against KB (KB): low micro molar
IC50 (KB): 4.8 µM

COc1cccc2c1C(=O)c1c(OC)cc(NC(=O)CI)cc1C2=O [Compound 14, 1,8-dimethoxy-3-(2′-iodo-acetamido)-anthraquinone]
IC50 (HeLa [1]; [3]): 2.5 µM
IC50 (μM) against HeLa (HeLa [1]; MTT, 48 h incubation): low micro molar
cytotoxicity against HeLa cells compared to rhein (HeLa [1]): significant improvement
IC50 (μM) against Hek (Hek; 48 h incubation): low micro molar
IC50 (Hek; [5]): 1.4 µM
IC50 (μM) against KB (KB): low micro molar
IC50 (KB; Homo sapiens, KB, 48 h): 10 µM

O=C1c2cccc(O)c2C(=O)c2c(O)cc(Sc3ccccc3)cc21 [Compound 24a, 1,8-Dihydroxy-3-(phenylthio)-anthraquinone]
potency increase compared with rhein, HeLa (HeLa [2]): at least 30 fold
IC50 (HeLa [2]; [6]): 3.4 µM
IC50 (μM) against HeLa (HeLa [2]; MTT, Tables 3 and 4): single digit μM level
potency increase compared with rhein, MOLT4 (MOLT4): at least 30 fold
IC50 (MOLT4; [7]): 1.4 µM
IC50 (μM) against MOLT4 (MOLT4; MTT, Tables 3 and 4): single digit μM level

CN1CCN(CC(=O)Nc2cc(O)c3c(c2)C(=O)c2cccc(O)c2C3=O)CC1 [Compound 9b, 1,8-Dihydroxy-3-(2′-(4″-methylpiperazin-1″-yl)-acetamido)-anthraquinone]
IC50 (HeLa [2]; [6]): 5.8 µM
IC50 (MOLT4; [7]): 3.1 µM

O=C(CBr)NCCCOCCOCCOCCCNC(=O)c1cc(O)c2c(c1)C(=O)c1cccc(O)c1C2=O [Compound 22, 1,8-Dihydroxy-3-(18′-bromo-aceta-6′,9′,12′-trioxa-2′,16′-tridecanediamido)-anthraquinone]
IC50 (HeLa [1]; [4]): 7 µM
IC50 (Hek; 48 h incubation): 2.2 µM
IC50 (KB): 9 µM

O=C(CCl)NCCCCNC(=O)c1cc(O)c2c(c1)C(=O)c1cccc(O)c1C2=O [Compound 17, 1,8-Dihydroxy-3-(9′-chloro-aceta-2′,7′diamido)-anthraquinone]
IC50 (HeLa [1]; [4]): 16 µM
IC50 (Hek; 48 h incubation): 8 µM
IC50 (KB): 19 µM

O=C(O)c1cc(O)c2c(c1)C(=O)c1cccc(O)c1C2=O [Rhein, reference compound]
IC50 (HeLa [1]; [3]): 100 µM
IC50 (HeLa [1]; [4]): > 100 µM
IC50 (Hek; [5]): > 100 µM
IC50 (KB): > 100 µM
IC50 (KB; Homo sapiens, KB, 48 h): ≥ 100 µM
IC50 (HeLa [2]; [6]): > 100 µM
IC50 (MOLT4; [7]): 37 µM

O=C1c2cccc(O)c2C(=O)c2c(O)cc(-c3cccs3)cc21 [Compound 26b, 1,8-Dihydroxy-3-(thiophen-2′-yl)-anthraquinone]
IC50 (HeLa [2]; [8]): > 100 µM
cytotoxicity against MOLT4 compared with rhein (MOLT4): decreased cytotoxicity
IC50 (MOLT4; [9]): > 100 µM

O=C(CCl)NCCCOCCOCCOCCCNC(=O)c1cc(O)c2c(c1)C(=O)c1cccc(O)c1C2=O [Compound 21, 1,8-Dihydroxy-3-(18′-chloro-aceta-6′,9′,12′-trioxa-2′,16′-tridecanediamido)-anthraquinone]
IC50 (HeLa [1]; [4]): 14 µM
IC50 (Hek; 48 h incubation): 8 µM
IC50 (KB): 21 µM

Cc1noc(C)c1-c1cc(O)c2c(c1)C(=O)c1cccc(O)c1C2=O [Compound 26a, 1,8-Dihydroxy-3-(3′,5′-dimethyl-isoxazol-4′-yl)-anthraquinone]
IC50 (HeLa [2]; [8]): 16 µM
potency in HeLa cells compared with rhein (HeLa [2]): moderate improvement in potency
IC50 (MOLT4; [9]): 14 µM

O=C(CI)NCCCOCCOCCOCCCNC(=O)c1cc(O)c2c(c1)C(=O)c1cccc(O)c1C2=O [Compound 23, 1,8-Dihydroxy-3-(18′-iodo-aceta-6′,9′,12′-trioxa-2′,16′-tridecanediamido)-anthraquinone]
IC50 (HeLa [1]; [4]): 5.8 µM
IC50 (Hek; 48 h incubation): 4 µM
IC50 (KB): 8 µM

O=C(CCl)Nc1cc(O)c2c(c1)C(=O)c1cccc(O)c1C2=O [Compound 5, 1,8-Dihydroxy-3-(2′-chloro-acetamido)-anthraquinone]
IC50 (HeLa [1]; [3]): 4 µM
IC50 (μM) against HeLa (HeLa [1]; MTT, 48 h incubation): low micro molar
cytotoxicity against HeLa cells compared to rhein (HeLa [1]): significant improvement
IC50 (μM) against Hek (Hek; 48 h incubation): low micro molar
IC50 (Hek; [5]): 4 µM
IC50 (μM) against KB (KB): low micro molar
IC50 (KB; Homo sapiens, KB, 48 h): 4.5 µM

O=C(CBr)Nc1cc(O)c2c(c1)C(=O)c1cccc(O)c1C2=O [Compound 6, 1,8-Dihydroxy-3-(2′-bromo-acetamido)-anthraquinone]
IC50 (HeLa [1]; [3]): 40 µM
times more potent than rhein against HeLa (HeLa [1]; ratio of IC50 values): 2.5 fold
IC50 (Hek; [5]): 8 µM
IC50 (KB; Homo sapiens, KB, 48 h): 15 µM

COc1cccc2c1C(=O)c1c(OC)cc(NC(=O)CBr)cc1C2=O [Compound 13, 1,8-dimethoxy-3-(2′-bromo-acetamido)-anthraquinone]
IC50 (HeLa [1]; [3]): 8 µM
IC50 (Hek; [5]): 2.3 µM
IC50 (KB; Homo sapiens, KB, 48 h): 38 µM

COc1ccc(-c2cc(O)c3c(c2)C(=O)c2cccc(O)c2C3=O)cc1 [Compound 26f, 1,8-Dihydroxy-3-(4′-methoxyphenyl)-anthraquinone]
IC50 (HeLa [2]; [6]): > 100 µM
IC50 (HeLa [2]; Homo sapiens, HeLa, less than 50% cells killed at highest concentration, R^2 < 0.8, read-out: IC50 (μM) against HeLa, value inside parenthesis calculated by Prism 4 using sigmoidal curve fitting): 20 µM
IC50 (MOLT4; [7]): 29 µM

CCN(CC)CC(=O)Nc1cc(O)c2c(c1)C(=O)c1cccc(O)c1C2=O [Compound 9a, 1,8-Dihydroxy-3-(2′-diethylamino-acetamido)-anthraquinone]
IC50 (HeLa [2]; [6]): 6.1 µM
IC50 (MOLT4; [7]): 3 µM

O=C(CN1CCOCC1)Nc1cc(O)c2c(c1)C(=O)c1cccc(O)c1C2=O [Compound 9c, 1,8-dihydroxy-3-(2′-morpholino-acetamido)-anthraquinone]
IC50 (HeLa [2]; [6]): 13 µM
IC50 (MOLT4; [7]): 25 µM

Cc1cc(-c2cc(O)c3c(c2)C(=O)c2cccc(O)c2C3=O)ccc1N(C)C [Compound 26c, 1,8-Dihydroxy-3-(4′-dimethylamino-3′-methylphenyl)-anthraquinone]
IC50 (HeLa [2]; [6]): 68 µM
potency in HeLa cells compared with rhein (HeLa [2]): moderate improvement in potency
IC50 (MOLT4; [7]): > 100 µM
cytotoxicity against MOLT4 compared with rhein (MOLT4): decreased cytotoxicity

O=C(CI)Nc1cc(O)c2c(c1)C(=O)c1cccc(O)c1C2=O [Compound 7, 1,8-Dihydroxy-3-(2′-iodo-acetamido)-anthraquinone]
IC50 (HeLa [1]; [3]): 10 µM
IC50 (Hek; [5]): 2 µM
IC50 (KB; Homo sapiens, KB, 48 h): 9 µM
IC50 (HeLa [2]; [6]): 17 µM
IC50 (MOLT4; [7]): 10 µM

O=C(CN1CCCCC1)Nc1cc(O)c2c(c1)C(=O)c1cccc(O)c1C2=O [Compound 9d, 1,8-Dihydroxy-3-(2′-piperidinyl-acetamido)-anthraquinone]
IC50 (HeLa [2]; [6]): 33 µM
IC50 (MOLT4; [7]): 4.1 µM

O=C1c2cccc(O)c2C(=O)c2c(O)cc(-c3ccc(O)cc3)cc21 [Compound 26g, 1,8-Dihydroxy-3-(4′-hydroxyphenyl)-anthraquinone]
IC50 (HeLa [2]; [6]): 9.9 µM
potency in HeLa cells compared with rhein (HeLa [2]): moderate improvement in potency
IC50 (MOLT4; [7]): 21 µM

O=C1c2cccc(O)c2C(=O)c2c(O)cc(-c3ccc(Sc4ccccc4)nc3)cc21 [Compound 26d, 1,8-Dihydroxy-3-(6′-phenylthio-pyridin-3′-yl)-anthraquinone]
IC50 (HeLa [2]; [8]): > 100 µM
IC50 (MOLT4; [9]): 35 µM
